Measurements reported in the supplement of paper PMC11451515.

System: P12-Ichikawa
Assay: cell viability relative to DMSO control; higher = less cytotoxic
Conditions: 48 h
In short: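 NOMO1 or SEM (500 cells/well) or P12-Ichikawa (1000 cells/well) leukemia cells were adapted for at least four passages in each medium. They were seeded in 1536-well plates (5 μl) and pin-dosed with library compounds in DMSO over an 11-point threefold series, 47 μM to 0.79 nM. CellTiter-Glo One luminescence was read after 48 h at 37°C. Viability is the per-plate percentage relative to DMSO wells, with cell-free wells as background.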

[1] = HPLM + 10% dialyzed FBS, 0.000781 µM
[2] = HPLM + 10% dialyzed FBS, 0.00234 µM
[3] = HPLM + 10% dialyzed FBS, 0.00702 µM
[4] = HPLM + 10% dialyzed FBS, 0.0211 µM
[5] = HPLM + 10% dialyzed FBS, 0.0632 µM
[6] = HPLM + 10% dialyzed FBS, 0.19 µM
[7] = HPLM + 10% dialyzed FBS, 0.569 µM
[8] = HPLM + 10% dialyzed FBS, 1.71 µM
[9] = HPLM + 10% dialyzed FBS, 5.12 µM
[10] = HPLM + 10% dialyzed FBS, 15.4 µM
[11] = HPLM + 10% dialyzed FBS, 46.1 µM
[12] = RPMI 5 mM glucose + 10% FBS, 0.000781 µM
[13] = RPMI 5 mM glucose + 10% FBS, 0.00234 µM
[14] = RPMI 5 mM glucose + 10% FBS, 0.00702 µM
[15] = RPMI 5 mM glucose + 10% FBS, 0.0211 µM
[16] = RPMI 5 mM glucose + 10% FBS, 0.0632 µM
[17] = RPMI 5 mM glucose + 10% FBS, 0.19 µM
[18] = RPMI 5 mM glucose + 10% FBS, 0.569 µM
[19] = RPMI 5 mM glucose + 10% FBS, 1.71 µM
[20] = RPMI 5 mM glucose + 10% FBS, 5.12 µM
[21] = RPMI 5 mM glucose + 10% FBS, 15.4 µM
[22] = RPMI 5 mM glucose + 10% FBS, 46.1 µM
[23] = RPMI 5 mM glucose + 10% dialyzed FBS, 0.000781 µM
[24] = RPMI 5 mM glucose + 10% dialyzed FBS, 0.00234 µM
[25] = RPMI 5 mM glucose + 10% dialyzed FBS, 0.00702 µM
[26] = RPMI 5 mM glucose + 10% dialyzed FBS, 0.0211 µM
[27] = RPMI 5 mM glucose + 10% dialyzed FBS, 0.0632 µM
[28] = RPMI 5 mM glucose + 10% dialyzed FBS, 0.19 µM
[29] = RPMI 5 mM glucose + 10% dialyzed FBS, 0.569 µM
[30] = RPMI 5 mM glucose + 10% dialyzed FBS, 1.71 µM
[31] = RPMI 5 mM glucose + 10% dialyzed FBS, 5.12 µM
[32] = RPMI 5 mM glucose + 10% dialyzed FBS, 15.4 µM
[33] = RPMI 5 mM glucose + 10% dialyzed FBS, 46.1 µM

SMILES | cell viability [1] [%] | cell viability [2] [%] | cell viability [3] [%] | cell viability [4] [%] | cell viability [5] [%] | cell viability [6] [%] | cell viability [7] [%] | cell viability [8] [%] | cell viability [9] [%] | cell viability [10] [%] | cell viability [11] [%] | cell viability [12] [%] | cell viability [13] [%] | cell viability [14] [%] | cell viability [15] [%] | cell viability [16] [%] | cell viability [17] [%] | cell viability [18] [%] | cell viability [19] [%] | cell viability [20] [%] | cell viability [21] [%] | cell viability [22] [%] | cell viability [23] [%] | cell viability [24] [%] | cell viability [25] [%] | cell viability [26] [%] | cell viability [27] [%] | cell viability [28] [%] | cell viability [29] [%] | cell viability [30] [%] | cell viability [31] [%] | cell viability [32] [%] | cell viability [33] [%]
O=C1CCc2ccc(OCCCCN3CCN(c4cccc(Cl)c4Cl)CC3)cc2N1 | 99 | 101 | 99.7 | 85 | 110 | 98.9 | 104 | 104 | 89.9 | 106 | 87.3 | 106 | 110 | 106 | 74.3 | 107 | 101 | 102 | 100 | 106 | 105 | 78.3 | 92.8 | 98.9 | 96.9 | 80.5 | 98.7 | 106 | 100 | 89.2 | 93.6 | 94.1 | 73.1
COC1=CC2=C(C=C1OC)[C@H]3[C@@H](CO2)OC4=C(C=CC5=C4\C=C/C(C)(C)O5)C3=O | 95.5 | 103 | 96.9 | 99.9 | 93.5 | 102 | 93.5 | 69.7 | 67.7 | 65.6 | 2.52 | 89 | 94.9 | 98.9 | 95.9 | 69.6 | 80 | 62.2 | 52.1 | 48.3 | 46.5 | 3.34 | 84.1 | 89.1 | 93.8 | 88.9 | 74.4 | 79.1 | 69.3 | 62.1 | 58.5 | 60.9 | 3.49
CCCCCCCCc1ccc(CCC(N)(CO)CO)cc1 | 113 | 111 | 113 | 104 | 108 | 112 | 101 | 107 | 76.1 | 84.1 | 7.48 | 118 | 114 | 113 | 114 | 119 | 115 | 104 | 101 | 80.8 | 60 | 3.8 | 105 | 110 | 112 | 109 | 103 | 111 | 90.2 | 114 | 87.2 | 68 | 3.18
COc1cc2ncnc(Nc3cccc(Br)c3)c2cc1OC | 88.8 | 101 | 103 | 100 | 97.6 | 105 | 110 | 98.4 | 102 | 111 | 106 | 87.9 | 97.6 | 105 | 103 | 108 | 107 | 117 | 99.8 | 114 | 112 | 106 | 95.9 | 91.5 | 106 | 104 | 114 | 112 | 113 | 109 | 109 | 112 | 105
CCCCCCCCCCCCCCCCCCOP(=O)([O-])OC1CC[N+](C)(C)CC1 | 112 | 111 | 114 | 113 | 111 | 109 | 121 | 114 | 106 | 104 | 112 | 104 | 106 | 99.9 | 87 | 107 | 111 | 113 | 124 | 103 | 105 | 95.3 | 105 | 110 | 126 | 78.2 | 111 | 110 | 115 | 121 | 110 | 105 | 113
COc1ccc2c(c1OC)CN1CCc3cc4c(cc3C1C2)OCO4 (stereo unspecified) | 94.5 | 96.2 | 101 | 104 | 101 | 99.8 | 97.2 | 77 | 15.9 | 6.51 | 6.63 | 86.1 | 87 | 92.7 | 93.9 | 94 | 89 | 86.7 | 53.6 | 17.7 | 5.68 | 4.82 | 84.8 | 87.7 | 92.6 | 94.4 | 92.5 | 83.2 | 83.5 | 52.9 | 13.4 | 7.72 | 6.88
O=C(CCc1ccc(O)cc1)c1c(O)cc(O)cc1O[C@@H]1O[C@H](CO)[C@@H](O)[C@H](O)[C@H]1O | 96.3 | 96.6 | 94.1 | 92.8 | 88 | 96.3 | 86.2 | 84 | 85.1 | 81.9 | 85.5 | 90.2 | 85.4 | 86.5 | 86.5 | 82.4 | 83.6 | 88.1 | 82.6 | 82.5 | 81.6 | 86.1 | 84.1 | 84.3 | 95 | 93.9 | 82.8 | 85.1 | 81.8 | 89.3 | 83.2 | 80.2 | 82.8
CCOC1=CC(=CC=C1C/2=N/[C@@](C)(C3=CC=C(Cl)C=C3)[C@](C)(N2C(=O)N4CCN(CC4)CC(=O)N5CCOCC5)C6=CC=C(Cl)C=C6)C(C)(C)C | 104 | 104 | 101 | 99.7 | 101 | 102 | 104 | 101 | 101 | 82.9 | 87.1 | 104 | 106 | 97.9 | 109 | 112 | 108 | 101 | 103 | 92.2 | 97.6 | 89.9 | 109 | 110 | 112 | 107 | 99.2 | 102 | 107 | 97.6 | 99.7 | 89.8 | 97.7
CN[C@@H]1C[C@H]2O[C@@](C)([C@@H]1OC)n1c3ccccc3c3c4c(c5c6ccccc6n2c5c31)C(=O)N[C@H]4O | 80.5 | 86.5 | 85.5 | 89.3 | 84.7 | 75.9 | 63.7 | 22.5 | 16.8 | 23.2 | 7.88 | 80 | 78 | 83.8 | 84.2 | 78.4 | 63.4 | 44.5 | 12.8 | 12.8 | 14.8 | 15 | 84.7 | 90.4 | 85.9 | 85.8 | 81.2 | 55.4 | 62 | 29 | 14 | 17.7 | 11.5
Cc1cn(CCN2CCN(c3ccccc3-c3cc(C#N)cc(C(=O)NCCCN4CCCC4)c3)CC2)c2ccccc12 | 110 | 109 | 106 | 104 | 109 | 115 | 119 | 120 | 91.2 | 8.78 | 6.19 | 107 | 107 | 103 | 115 | 118 | 118 | 124 | 103 | 90.8 | 23.2 | 15.6 | 118 | 119 | 117 | 117 | 124 | 126 | 128 | 111 | 93 | 26.9 | 19.9
CC(C)NCC(O)COc1ccc(CCOCC2CC2)cc1 (stereo unspecified) | 121 | 118 | 113 | 117 | 113 | 126 | 115 | 113 | 111 | 118 | 120 | 120 | 123 | 118 | 121 | 125 | 121 | 131 | 126 | 118 | 104 | 123 | 121 | 121 | 112 | 116 | 122 | 116 | 110 | 119 | 113 | 107 | 115
N#CC(=C(/N)Sc1ccccc1N)/C(C#N)=C(\N)Sc1ccccc1N | 115 | 121 | 120 | 128 | 131 | 125 | 131 | 120 | 126 | 124 | 111 |  |  |  |  |  |  |  |  |  |  |  |  |  |  |  |  |  |  |  |  |  | 
CN[S+](=O)([O-])CCc1ccc2[nH]cc(C3CCN(C)CC3)c2c1 | 95.6 | 98.2 | 99.7 | 99.5 | 101 | 103 | 108 | 102 | 112 | 103 | 105 | 91.6 | 91.6 | 84.7 | 96 | 101 | 100 | 101 | 107 | 102 | 98 | 101 | 87.8 | 94.2 | 96.4 | 94.4 | 99.9 | 99 | 107 | 96.3 | 97.4 | 101 | 98.9
CN(C)c1ccc(Nc2nc(N)n(C(=O)c3c(F)cccc3F)n2)cc1 | 106 | 115 | 125 | 79.5 | 122 | 127 | 121 | 117 | 114 | 29.1 | 88.2 | 122 | 116 | 115 | 70 | 132 | 126 | 130 | 137 | 114 | 28.8 | 60.2 | 114 | 115 | 120 | 72.4 | 125 | 125 | 118 | 126 | 120 | 41.2 | 68.3
COc1cc(OC)c(NC(=O)Nc2cc(C)on2)cc1Cl | 94.9 | 98.8 | 110 | 99.6 | 101 | 106 | 102 | 106 | 107 | 110 | 106 | 90.3 | 95.9 | 96.8 | 98.2 | 108 | 104 | 95.5 | 106 | 107 | 102 | 101 | 98.1 | 90.7 | 97 | 97.8 | 96.5 | 96.5 | 106 | 102 | 96.2 | 91.7 | 92
NC(=O)c1cccc(N)c1 | 106 | 105 | 70.8 | 116 | 120 | 122 | 117 | 117 | 121 | 111 | 116 | 101 | 106 | 67.8 | 121 | 115 | 124 | 108 | 117 | 120 | 117 | 113 | 101 | 112 | 78.1 | 114 | 115 | 115 | 124 | 120 | 115 | 120 | 120
